This passage reports Activity results from ChEMBL document CHEMBL2074360, “Sequence analysis and functional characterization of the 5'-flanking region of the rat multidrug resistance protein 2 (mrp2) gene” (Biochem Biophys Res Commun, 1998).

Series [1] addresses T1, ATP-binding cassette sub-family C member 2 (Rattus norvegicus, UniProt Q63120). The series can be described thus: TP_TRANSPORTER: Western blot, H4IIE rat hepatoma cells. The class given is functional, cell-based. On the technique in general: Immunoblotting shows a protein as a band on a membrane.
For series [2], the target named is T1, ATP-binding cassette sub-family C member 2. The series can be described thus: TP_TRANSPORTER: Northern blot from H4IIE rat hepatoma cells. The class given is functional, cell-based.

T1 sequence (Q63120 whole entry): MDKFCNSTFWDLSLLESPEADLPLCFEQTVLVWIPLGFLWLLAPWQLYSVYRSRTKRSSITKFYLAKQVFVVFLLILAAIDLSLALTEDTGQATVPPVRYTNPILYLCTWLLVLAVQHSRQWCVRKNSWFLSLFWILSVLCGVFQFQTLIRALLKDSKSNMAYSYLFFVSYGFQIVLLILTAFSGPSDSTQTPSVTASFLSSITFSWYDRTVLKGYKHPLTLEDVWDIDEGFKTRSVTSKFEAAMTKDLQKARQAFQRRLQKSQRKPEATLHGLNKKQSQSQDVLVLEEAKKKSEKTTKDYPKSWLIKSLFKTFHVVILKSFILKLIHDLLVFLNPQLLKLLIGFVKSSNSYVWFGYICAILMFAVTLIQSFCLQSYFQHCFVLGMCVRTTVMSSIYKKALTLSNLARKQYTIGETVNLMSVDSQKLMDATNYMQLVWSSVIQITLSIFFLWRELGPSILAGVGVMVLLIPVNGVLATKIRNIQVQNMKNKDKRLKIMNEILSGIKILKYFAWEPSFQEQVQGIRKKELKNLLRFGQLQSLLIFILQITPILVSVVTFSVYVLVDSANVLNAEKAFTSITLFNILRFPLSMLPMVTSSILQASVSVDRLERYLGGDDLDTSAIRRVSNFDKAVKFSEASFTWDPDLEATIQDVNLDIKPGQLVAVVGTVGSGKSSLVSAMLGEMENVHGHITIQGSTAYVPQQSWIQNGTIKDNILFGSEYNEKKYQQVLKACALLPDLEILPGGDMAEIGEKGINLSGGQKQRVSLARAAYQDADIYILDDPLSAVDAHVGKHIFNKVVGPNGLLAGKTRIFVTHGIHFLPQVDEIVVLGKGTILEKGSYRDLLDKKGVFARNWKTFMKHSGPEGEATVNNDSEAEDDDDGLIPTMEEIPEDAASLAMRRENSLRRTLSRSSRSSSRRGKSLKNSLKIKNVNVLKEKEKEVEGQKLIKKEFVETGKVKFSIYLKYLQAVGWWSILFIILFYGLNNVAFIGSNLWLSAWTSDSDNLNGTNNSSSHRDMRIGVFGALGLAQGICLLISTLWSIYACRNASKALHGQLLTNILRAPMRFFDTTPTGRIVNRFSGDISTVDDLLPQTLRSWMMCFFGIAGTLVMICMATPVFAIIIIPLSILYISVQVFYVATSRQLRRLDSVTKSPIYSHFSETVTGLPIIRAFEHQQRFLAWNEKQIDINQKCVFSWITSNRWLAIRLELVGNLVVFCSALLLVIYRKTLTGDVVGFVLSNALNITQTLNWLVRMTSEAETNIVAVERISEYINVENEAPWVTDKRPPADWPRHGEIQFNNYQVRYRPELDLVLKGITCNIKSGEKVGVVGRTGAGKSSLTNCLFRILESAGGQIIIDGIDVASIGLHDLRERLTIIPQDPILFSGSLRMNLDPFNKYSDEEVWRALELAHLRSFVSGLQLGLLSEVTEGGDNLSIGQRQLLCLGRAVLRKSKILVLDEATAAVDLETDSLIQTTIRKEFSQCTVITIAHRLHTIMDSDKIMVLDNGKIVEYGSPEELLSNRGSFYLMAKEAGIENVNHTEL

For the molecule `C#C[C@]1(O)CC[C@H]2[C@@H]3CCc4cc(O)ccc4[C@H]3CC[C@@]21C` [ETHINYL ESTRADIOL], the Activity entry in series [1] and in series [2] was “inducer [+]” each time.
In the case of `CCC1(c2ccccc2)C(=O)NC(=O)NC1=O` [PHENOBARBITAL], the Activity result in series [1] and in series [2] was “inducer [+]” throughout.
